Experimental data published in patent US6534523B1, “Hepatitis C inhibitor tri-peptides” (Boehringer Ingelheim (Canada) Ltd., priority 1998, dated 2003).
Where two headings read alike, the source gives them in different places.

Molecular target: HCV NS3 protease (UniProt P26663)
Assay type: biochemical, HCV genotype 1b
Set-up: rows headed: IC50 (μM); IC50 (μM)
Description: Recombinant HCV NS3 Protease/NS4A Cofactor Peptide Radiometric Assay
The enzyme was cloned, expressed and prepared according to the protocol described in Example 36. The enzyme was stored at −80° C., thawed on ice and diluted just prior to use in the assay buffer containing the NS4A cofactor peptide.
The substrate used for the NS3 protease/NS4A cofactor peptide radiometric assay, DDIVPC-SMSYTW, is cleaved between the cysteine and the serine residues by the enzyme. The sequence DDIVPC-SMSYTW corresponds to the NS5A/NS5B natural cleavage site in which the cysteine residue in P2 has been substituted for a proline. […] (molar ratio enzyme:cofactor 1:100) in the absence or presence of inhibitors. The separation of substrate from products is performed by adding avidin-coated agarose beads to the assay mixture followed by filtration. The amount of SMS[^125I-Y]TW product found in the filtrate allows for the calculation of the percentage of substrate conversion and of the percentage of inhibition.
The enzymatic reaction was initiated by the addition of the enzyme/NS4A peptide solution and the assay mixture was incubated for 40 min at 23° C. under gentle agitation. Ten (10) μL of 0.5N NaOH were added and 10 μL 1 M MES, pH 5.8 were added to quench the enzymatic reaction.
A non-linear curve fit with the Hill model was applied to the inhibition-concentration data, and the 50% effective concentration (IC50) was calculated by the use of SAS software (Statistical Software System; SAS Institute, Inc. Cary, N.C.). […]
The NS2-NS5B-3′ non coding region was cloned by RT-PCR into the pCR®3 vector (Invitrogen) using RNA extracted from the serum of an HCV genotype 1b infected individual (provided by Dr. Bernard Willems, Hôpital St-Luc, Montréal, Québec, Canada). The NS3-NS4A DNA region was then subcloned by PCR into the pFastBac™ HTa baculovirus expression vector (Gibco/BRL). The vector sequence includes a region encoding a 28-residue N-terminal sequence which contains a hexahistidine tag. The Bac-to-Bac™ baculovirus expression system (Gibco/BRL) was used to produce the recombinant baculovirus. The full length mature NS3 and NS4A heterodimer protein (His-NS3-NS4AFL) was expressed by infecting 10^6 Sf21 cells/mL with the recombinant baculovirus at a multiplicity of infection of 0.1-0.2 at 27° C. The infected culture was harvested 48 to 64 h later by centrifugation at 4° C. The cell pellet was homogenized in 50 mM NaPO4, pH 7.5, 40% glycerol (w/v), 2 mM β-mercaptoethanol, in presence of a cocktail of protease inhibitors. His-NS3-NS4AFL was then extracted from the cell lysate with 1.5% NP-40, 0.5% Triton X-100, 0.5M NaCl, and a DNase treatment. After ultracentrifugation, the soluble extract was diluted 4-fold and bound on a Pharmacia Hi-Trap Ni-chelating column. […] The His-NS3-NS4AFL was stored at −80° C. in 50 mM sodium phosphate, pH 7.5, 10% (w/v) glycerol, 0.5 M NaCl, 0.25 M imidazole, 0.1% NP-40. It was thawed on ice and diluted just prior to use. The protease activity of His-NS3-NS4AFL was assayed in 50 mM Tris-HCl, pH 8.0, 0.25 M sodium citrate, 0.01% (w/v) n-dodecyl-β-D-maltoside, 1 mM TCEP. Five (5) μM of the internally quenched substrate anthranilyl-DDIVPAbu[C(O)—O]-AMY(3-NO2)TW-OH in presence of various concentrations of inhibitor were incubated with 1.5 nM of His-NS3-NS4AFL for 45 min at 23° C. […] The reaction was terminated with the addition of 1M MES, pH 5.8. Fluorescence of the N-terminal product was monitored on a Perkin-Elmer LS-50B fluorometer equipped with a 96-well plate reader (excitation wavelength: 325 nm; emission wavelength: 423 nm).
The following tables list compounds representative of the invention.

Sequence of HCV NS3 protease (P26663 1027-1206, other chains not shown): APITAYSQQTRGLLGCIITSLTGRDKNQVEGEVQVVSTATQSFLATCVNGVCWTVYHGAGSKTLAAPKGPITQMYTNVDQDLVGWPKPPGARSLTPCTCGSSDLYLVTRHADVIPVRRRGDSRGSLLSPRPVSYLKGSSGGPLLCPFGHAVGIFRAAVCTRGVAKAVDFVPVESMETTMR

With `CCC1CC1(NC(=O)C1CC(OCc2cccc3ccccc23)CN1C(=O)C(NC(=O)OC(C)(C)C)C1CCCCC1)C(=O)O` (centres unmarked) [compound 301] the IC50 (Table 3) was 7.7 µM.
`CC[C@H]1C[C@]1(NC(=O)[C@@H]1C[C@@H](OCc2cccc3ccccc23)CN1C(=O)[C@@H](NC(=O)OCC(C)C)C(C)C)C(=O)O` [compound 302] showed an IC50 (Table 3) of 12.5 µM.
In the case of `CC[C@H]1C[C@]1(NC(=O)[C@@H]1C[C@@H](OCc2cccc3ccccc23)CN1C(=O)[C@@H](NC(=O)OCC(C)C)C1CCCCC1)C(=O)O` [compound 303], the IC50 (Table 3) is reported as 11 µM.
`C=C[C@H]1C[C@]1(NC(=O)[C@@H]1C[C@@H](OCc2cccc3ccccc23)CN1C(=O)[C@@H](NC(=O)OC(C)(C)C)C1CCCCC1)C(=O)O` [compound 305] was tested, and the IC50 (Table 3) was 3.2 µM.
Work on `C=C[C@H]1C[C@]1(NC(=O)[C@@H]1C[C@@H](Oc2ccnc3ccccc23)CN1C(=O)[C@@H](NC(=O)OC(C)(C)C)C1CCCCC1)C(=O)O` [compound 306] yielded an IC50 (Table 3) of 0.8 µM.
`C=C[C@H]1C[C@]1(NC(=O)[C@@H]1CC(Oc2cc(-c3ccccc3)nc3ccc([N+](=O)[O-])cc23)CN1C(=O)[C@@H](NC(=O)OC(C)(C)C)C1CCCCC1)C(=O)O` (some centres unmarked) [compound 307] showed an IC50 (Table 3) of 0.27 µM.
Compound `C=C[C@H]1C[C@]1(NC(=O)[C@@H]1C[C@@H](Oc2cccc3ccccc23)CN1C(=O)[C@@H](NC(=O)OC(C)(C)C)C1CCCCC1)C(=O)O` [compound 308] has an IC50 (Table 3) of 1.6 µM.
`C=C[C@H]1C[C@]1(NC(=O)[C@@H]1C[C@@H](Oc2ccc3ccccc3c2)CN1C(=O)[C@@H](NC(=O)OC(C)(C)C)C1CCCCC1)C(=O)O` [compound 309] showed an IC50 (Table 3) of 5 µM.
`COc1ccc2c(OC3C[C@@H](C(=O)NC4(C(=O)O)CCC4)N(C(=O)[C@@H](NC(=O)OC(C)(C)C)C(C)(C)C)C3)cc(-c3ccccc3)nc2c1` (some centres unmarked) [compound 403] showed an IC50 (Table 4) of 0.132 µM.
For `C=CC1C[C@]1(NC(=O)[C@@H]1C[C@@H](Oc2ccnc3ccccc23)CN1C(=O)[C@@H](NC(=O)OC(C)(C)C)C(C)(C)C)C(=O)O` (some centres unmarked) [compound 501], the IC50 (Table 5) was 0.4 µM.
Work on `C=CC1CC1(NC(=O)C1CC(Oc2ccnc3ccccc23)CN1C(=O)C(NC(=O)OC(C)(C)C)C(C)OC(C)(C)C)C(=O)O` (centres unmarked) [compound 503] yielded an IC50 (Table 5) of 0.79 µM.
With `C=CC1CC1(NC(=O)C1CC(Oc2ccnc3ccccc23)CN1C(=O)C(NC(=O)OC(C)(C)C)C(C)OC)C(=O)O` (centres unmarked) [compound 505] the IC50 (Table 5) was 0.79 µM.
For `C=CC1CC1(NC(=O)C1CC(Oc2ccnc3ccccc23)CN1C(=O)C(NC(=O)OC(C)(C)C)C(C)OCc1ccccc1)C(=O)O` (centres unmarked) [compound 506], the IC50 (Table 5) was 1.3 µM.
In the case of `C=CC1CC1(NC(=O)C1CC(Oc2ccnc3ccccc23)CN1C(=O)C(NC(=O)OC(C)(C)C)C(C)(C)SCNC(C)=O)C(=O)O` (centres unmarked) [compound 507], the IC50 (Table 5) is reported as 0.98 µM.
Compound `C=CC1CC1(NC(=O)C1CC(Oc2ccnc3ccccc23)CN1C(=O)C(NC(=O)OC(C)(C)C)C(C)(C)SCc1ccc(C)cc1)C(=O)O` (centres unmarked) [compound 508] has an IC50 (Table 5) of 3.1 µM.
`C=CC1CC1(NC(=O)C1CC(Oc2ccnc3ccccc23)CN1C(=O)C(NC(=O)OC(C)(C)C)C(C)CC)C(=O)O` (centres unmarked) [compound 509] gave an IC50 (Table 5) of 0.377 µM.
For `C=CC1CC1(NC(=O)C1CC(Oc2ccnc3ccccc23)CN1C(=O)C(NC(=O)OC(C)(C)C)C(C)CC)C(=O)O` (centres unmarked) [compound 510], the IC50 (Table 5) was 0.255 µM.
Work on `C=CC1CC1(NC(=O)C1CC(Oc2ccnc3ccccc23)CN1C(=O)C(NC(=O)OC(C)(C)C)C(O)C1CCCCC1)C(=O)O` (centres unmarked) [compound 511] yielded an IC50 (Table 5) of 2.1 µM.
Compound `C=CC1CC1(NC(=O)C1CC(Oc2cc(-c3ccccc3)nc3c(OC)c(OC)ccc23)CN1C(=O)C(NC(=O)OC(C)(C)C)C(C)(C)C)C(=O)O` (centres unmarked) [compound 602] has an IC50 (Table 6) of 0.041 µM.
Compound `C=CC1CC1(NC(=O)C1CC(Oc2cc(-c3ccccc3)nc3cc(CC)ccc23)CN1C(=O)C(NC(=O)OC(C)(C)C)C(C)C)C(=O)O` (centres unmarked) [compound 603] has an IC50 (Table 6) of 0.195 µM.
In the case of `C=CC1CC1(NC(=O)C1CC(Oc2ccnc3cc(OC)ccc23)CN1C(=O)C(NC(=O)OC(C)(C)C)C(C)(C)C)C(=O)O` (centres unmarked) [compound 604], the IC50 (Table 6) is reported as 0.073 µM.
With `C=CC1CC1(NC(=O)C1CC(Oc2cc(-c3ccccc3)nc3cc(OC(C)C)ccc23)CN1C(=O)C(NC(=O)OC(C)(C)C)C(C)(C)C)C(=O)O` (centres unmarked) [compound 605] the IC50 (Table 6) was 0.195 µM.
In the case of `C=CC1CC1(NC(=O)C1CC(Oc2ccnc3cc(Cl)ccc23)CN1C(=O)C(NC(=O)OC(C)(C)C)C(C)(C)C)C(=O)O` (centres unmarked) [compound 606], the IC50 (Table 6) is reported as 0.48 µM.
`C=CC1CC1(NC(=O)C1CC(Oc2ccnc3cc(Cl)ccc23)CN1C(=O)C(NC(=O)OC(C)(C)C)C(C)C)C(=O)O` (centres unmarked) [compound 607] gave an IC50 (Table 6) of 0.45 µM.
Compound `C=CC1CC1(NC(=O)C1CC(Oc2ccnc3cc(Cl)ccc23)CN1C(=O)C(CC(C)C)NC(=O)OC(C)(C)C)C(=O)O` (centres unmarked) [compound 608] has an IC50 (Table 6) of 1.45 µM.
`C=CC1CC1(NC(=O)C1CC(Oc2cc(CN3CCOCC3)nc3ccccc23)CN1C(=O)C(NC(=O)OC(C)(C)C)C(C)(C)C)C(=O)O` (centres unmarked) [compound 609] was tested, and the IC50 (Table 6) was 1.7 µM.
Compound `C=CC1CC1(NC(=O)C1CC(Oc2cc(Cl)nc3ccccc23)CN1C(=O)C(NC(=O)OC(C)(C)C)C(C)(C)C)C(=O)O` (centres unmarked) [compound 610] has an IC50 (Table 6) of 0.25 µM.
With `C=CC1CC1(NC(=O)C1CC(Oc2cc(-c3ccccc3)nc3cc(N(C)C)ccc23)CN1C(=O)C(NC(=O)OC(C)(C)C)C(C)(C)C)C(=O)O` (centres unmarked) [compound 611] the IC50 (Table 6) was 0.035 µM.
`C=CC1CC1(NC(=O)C1CC(Oc2cc(N3CCOCC3)nc3ccccc23)CN1C(=O)C(NC(=O)OC(C)(C)C)C(C)(C)C)C(=O)O` (centres unmarked) [compound 612] showed an IC50 (Table 6) of 0.278 µM.
Compound `C=CC1CC1(NC(=O)C1CC(Oc2cc(N3CCCC3)nc3ccccc23)CN1C(=O)C(NC(=O)OC(C)(C)C)C(C)(C)C)C(=O)O` (centres unmarked) [compound 613] has an IC50 (Table 6) of 1 µM.
With `C=CC1CC1(NC(=O)C1CC(Oc2cc(CN3CCCC3)nc3ccccc23)CN1C(=O)C(NC(=O)OC(C)(C)C)C(C)(C)C)C(=O)O` (centres unmarked) [compound 614] the IC50 (Table 6) was 2.2 µM.
`C=CC1CC1(NC(=O)C1CC(Oc2ccnc3cc(N(C)C)ccc23)CN1C(=O)C(NC(=O)OC(C)(C)C)C(C)(C)C)C(=O)O` (centres unmarked) [compound 615] was tested, and the IC50 (Table 6) was 0.16 µM.
For `C=CC1CC1(NC(=O)C1CC(Oc2cc(N3CCCCC3)nc3ccccc23)CN1C(=O)C(NC(=O)OC(C)(C)C)C(C)(C)C)C(=O)O` (centres unmarked) [compound 617], the IC50 (Table 6) was 0.345 µM.
With `C=CC1CC1(NC(=O)C1CC(Oc2cc(CN(C)C)nc3ccccc23)CN1C(=O)C(NC(=O)OC(C)(C)C)C(C)(C)C)C(=O)O` (centres unmarked) [compound 618] the IC50 (Table 6) was 2.3 µM.
For `C=CC1CC1(NC(=O)C1CC(Oc2cc(-c3csc(C)n3)nc3ccccc23)CN1C(=O)C(NC(=O)OC(C)(C)C)C(C)(C)C)C(=O)O` (centres unmarked) [compound 621], the IC50 (Table 6) was 0.058 µM.
`C=CC1CC1(NC(=O)C1CC(Oc2cc(OCC)nc3ccccc23)CN1C(=O)C(NC(=O)OC(C)(C)C)C(C)(C)C)C(=O)O` (centres unmarked) [compound 622] gave an IC50 (Table 6) of 0.16 µM.
`C=CC1CC1(NC(=O)C1CC(Oc2cc(OC)nc3ccccc23)CN1C(=O)C(NC(=O)OC(C)(C)C)C(C)(C)C)C(=O)O` (centres unmarked) [compound 623] showed an IC50 (Table 6) of 0.2 µM.
In the case of `C=CC1CC1(NC(=O)C1CC(Oc2cc(N(C)C)nc3ccccc23)CN1C(=O)C(NC(=O)OC(C)(C)C)C(C)(C)C)C(=O)O` (centres unmarked) [compound 624], the IC50 (Table 6) is reported as 1.3 µM.
For `C=CC1CC1(NC(=O)C1CC(Oc2cc(-c3ccccc3)nc3cc(SC)ccc23)CN1C(=O)C(NC(=O)OC(C)(C)C)C(C)(C)C)C(=O)O` (centres unmarked) [compound 625], the IC50 (Table 6) was 0.16 µM.
Work on `C=CC1CC1(NC(=O)C1CC(Oc2cc(-c3ccccc3)nc3cc(Br)ccc23)CN1C(=O)C(NC(=O)OC(C)(C)C)C(C)(C)C)C(=O)O` (centres unmarked) [compound 626] yielded an IC50 (Table 6) of 0.24 µM.
Work on `C=CC1CC1(NC(=O)C1CC(Oc2cc(-c3ccccc3)nc3cc(F)ccc23)CN1C(=O)C(NC(=O)OC(C)(C)C)C(C)(C)C)C(=O)O` (centres unmarked) [compound 627] yielded an IC50 (Table 6) of 0.33 µM.
